Experimental data: ChEMBL document CHEMBL1128956, “Irreversible inhibitions of serine proteases by peptidyl allylic halide derivatives” (Bioorg Med Chem Lett, 1996)

Columns and labels:
[1] = molecular target: Chymotrypsinogen A (Bos taurus) (UniProt P00766); assay: Compound was tested for inhibitory activity against alpha-chymotrypsin
[2] = molecular target: Chymotrypsinogen A (Bos taurus) (UniProt P00766); assay: Compound was tested for inhibitory activity towards alpha-chymotrypsin expressed as second order rate constant values
[3] = molecular target: T1, Chymotrypsin-like elastase family member 2A (Sus scrofa) (UniProt P08419); assay: Compound was tested for inhibitory activity toward porcine pancreatic elastase expressed as second order rate constant values: No inactivation
T1 sequence (whole entry): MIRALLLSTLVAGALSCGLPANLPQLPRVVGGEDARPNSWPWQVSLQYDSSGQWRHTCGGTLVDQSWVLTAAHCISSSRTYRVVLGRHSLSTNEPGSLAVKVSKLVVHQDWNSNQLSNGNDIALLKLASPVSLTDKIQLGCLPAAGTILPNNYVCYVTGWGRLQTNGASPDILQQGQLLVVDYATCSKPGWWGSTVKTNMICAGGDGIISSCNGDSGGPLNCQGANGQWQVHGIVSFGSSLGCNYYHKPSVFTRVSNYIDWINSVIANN

[4] = molecular target: T1, Chymotrypsin-like elastase family member 2A (Sus scrofa); assay: Compound was tested for inhibitory activity toward porcine pancreatic elastase.
[5] = molecular target: Chymotrypsinogen A (Bos taurus) (UniProt P00766); assay: Compound was tested for inhibitory activity against alpha-chymotrypsin
[6] = molecular target: Chymotrypsinogen A (Bos taurus) (UniProt P00766); assay: Compound was tested for inhibitory activity towards alpha-chymotrypsin expressed as second order rate constant values; No inactivation
[7] = molecular target: Chymotrypsinogen A (Bos taurus) (UniProt P00766); assay: Compound was tested for inhibitory activity towards alpha-chymotrypsin expressed as second order rate constant values

| Concentration [1] [µM] | k obs / concentration [2] [M⁻¹ s⁻¹] | k obs / concentration [3] | Concentration [4] [µM] | Concentration [5] [mM] | k obs / concentration [6] | k obs / concentration [7] [M⁻¹ s⁻¹] | SMILES |
| --- | --- | --- | --- | --- | --- | --- | --- |
| 25 | 215 | No inactivation | 25 |  |  |  | O=C(CNC(=O)OCc1ccccc1)N[C@H](/C=C/CBr)Cc1ccccc1 |
| 101 | 14 | No inactivation | 101 |  |  |  | CC(=O)N[C@H](/C=C/CBr)Cc1ccccc1 |
| 17 | 61 | No inactivation | 97 |  |  |  | O=C(CNC(=O)OCc1ccccc1)NCC(=O)N[C@H](/C=C/CCl)Cc1ccccc1 |
|  |  |  |  | 4.4 | No inactivation |  | O=C(CNC(=O)OCc1ccccc1)NCC(=O)N[C@H](/C=C/CF)Cc1ccccc1 |
| 28 | 12 | No inactivation | 600 |  |  |  | O=C(CNC(=O)OCc1ccccc1)N[C@H](/C=C/CCl)Cc1ccccc1 |
|  |  |  |  | 1.05 | No inactivation |  | O=C(CNC(=O)OCc1ccccc1)N[C@H](/C=C/CF)Cc1ccccc1 |
| 7 | 1240 | No inactivation | 15 |  |  |  | O=C(CNC(=O)OCc1ccccc1)NCC(=O)N[C@H](/C=C/CBr)Cc1ccccc1 |
|  |  |  |  | 0.476 |  | 0.8 | CC(=O)N[C@H](/C=C/CCl)Cc1ccccc1 |
|  |  |  |  | 13.5 | No inactivation |  | CC(=O)N[C@H](/C=C/CF)Cc1ccccc1 |
